We go through 90 molecules from ChEMBL document CHEMBL1140143, “Combining ligand-based pharmacophore modeling, quantitative structure-activity relationship analysis and in silico screening for the discovery of new potent hormone sensitive lipase inhibitors” (J Med Chem, 2008).

For this test, the target named is T1, Hormone-sensitive lipase (Rattus norvegicus, UniProt P15304).
T1 sequence (P15304 whole entry): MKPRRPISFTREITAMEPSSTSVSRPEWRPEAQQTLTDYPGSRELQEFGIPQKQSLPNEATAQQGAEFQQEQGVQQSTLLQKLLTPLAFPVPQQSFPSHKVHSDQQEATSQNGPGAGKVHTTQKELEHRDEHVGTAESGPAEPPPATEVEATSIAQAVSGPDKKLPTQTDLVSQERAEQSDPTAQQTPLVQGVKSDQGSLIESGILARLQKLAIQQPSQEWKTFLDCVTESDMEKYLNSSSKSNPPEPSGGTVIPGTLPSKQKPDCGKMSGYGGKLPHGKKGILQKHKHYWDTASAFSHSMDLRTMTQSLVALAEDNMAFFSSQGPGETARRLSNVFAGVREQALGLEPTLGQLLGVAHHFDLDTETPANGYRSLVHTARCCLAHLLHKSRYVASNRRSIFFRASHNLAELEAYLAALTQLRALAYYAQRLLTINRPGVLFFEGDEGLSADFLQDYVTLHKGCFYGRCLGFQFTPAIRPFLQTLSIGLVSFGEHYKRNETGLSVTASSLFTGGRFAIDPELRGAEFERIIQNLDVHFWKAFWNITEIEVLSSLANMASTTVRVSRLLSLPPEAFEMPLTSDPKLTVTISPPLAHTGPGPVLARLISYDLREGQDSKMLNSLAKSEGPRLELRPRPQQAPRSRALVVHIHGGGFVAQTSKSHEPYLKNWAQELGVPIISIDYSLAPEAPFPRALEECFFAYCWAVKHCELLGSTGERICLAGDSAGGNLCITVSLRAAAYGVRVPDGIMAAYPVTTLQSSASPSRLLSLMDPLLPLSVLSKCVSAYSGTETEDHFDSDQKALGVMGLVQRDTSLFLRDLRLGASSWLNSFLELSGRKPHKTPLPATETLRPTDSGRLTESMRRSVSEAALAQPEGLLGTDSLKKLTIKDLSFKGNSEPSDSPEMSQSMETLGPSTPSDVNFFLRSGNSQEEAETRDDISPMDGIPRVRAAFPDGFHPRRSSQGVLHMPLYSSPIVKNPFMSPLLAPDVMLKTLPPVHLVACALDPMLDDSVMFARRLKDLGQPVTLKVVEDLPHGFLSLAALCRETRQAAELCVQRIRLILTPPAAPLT
In words: Inhibition of HSL in Wistar rat isolated fat cells by spectrophotometric assay.

pIC50: −log10 of the molar value.

Molecule `Cc1c(C(C)C)c(=O)on1C(=O)N1CCC(O)(c2ccccc2)CC1` showed a pIC50 of less than 6.00.

For `Cc1ccc(-c2nc(SCC(F)(F)F)n(C(=O)N(C)C)n2)cc1`, the pIC50 is 7.98. Then `Cc1c(C(C)C)c(=O)on1C(=O)N1CCCCCCC1`, with 6.05. The same measure for `Cc1c(C(C)C)c(=O)on1C(=O)N1CCC(=O)CC1`: 6.70.

`CN(C(=O)n1nc(-c2ccc(Cl)cc2)nc1SCC1CC1)c1ccccc1`: the pIC50 is 8.96. The same measure for `Cc1c(C(C)C)c(=O)on1C(=O)N(C)Cc1ccc(F)cc1`: 6.95. Take `Cc1c(C(C)C)c(=O)on1C(=O)N1CCC(c2cccc(F)c2)CC1`: the pIC50 is 7.92. Then `CSc1nc(-c2ccc(C)cc2)nn1C(=O)N(C)C`, with 9.28. Then `Cc1c(C2CCS(=O)(=O)CC2)c(=O)on1C(=O)N1CCCCC1`, with 7.26; and `COc1ccc(-c2nc(SC)n(C(=O)N(C)C)n2)cc1`, with 7.80; and `CCSc1nc(-c2ccc(OC)cc2)nn1C(=O)N1CCOCC1`, with 6.80. The same measure for `Cc1ccc(CN(C)C(=O)n2oc(=O)c(C(C)C)c2C)cc1`: 6.39; for `Cc1c(C(C)C)c(=O)on1C(=O)N1CCC(Cc2ccccc2)CC1`: 6.99. For `Cc1c(C(C)C)c(=O)on1C(=O)N(C)c1ccccc1`, the pIC50 was 8.15.

In the case of `Cc1c(C(C)C)c(=O)on1C(=O)N(C)C1CCCCC1`, the pIC50 is 8.05. `CSc1nc(-c2ccc(Cl)cc2)nn1C(=O)N(C)C` gave a pIC50 of 9.45. In turn, `Cc1c(C(C)C)c(=O)on1C(=O)N1CCCCC1C` (stereo not given) showed a negative-log IC50 (pIC50) of 7.03. `Cc1c(C(C)C)c(=O)on1C(=O)N1CCNCC1` showed a pIC50 of less than 6.00.

As for `Cc1c(C(C)C)c(=O)on1C(=O)N1CCC(C)CC1`, the pIC50 is 8.22. Then `CSc1nc(-c2ccc(Cl)cc2)nn1C(=O)N1CCOCC1`, with 7.45. Then `CSc1nc(-c2ccc(OC(F)(F)F)cc2)nn1C(=O)N(C)C`, with 8.75; and `Cc1c(C(C)C)c(=O)on1C(=O)N1CCC(C(=O)c2ccccc2)CC1`, with 6.60; and `Cc1c(C(C)C)c(=O)on1C(=O)N1CC=CC1`, with 7.14. Then `Cc1c(CC(C)C)c(=O)on1C(=O)N1CCC(C)CC1`, with 8.52. `Cc1c(C(C)C)c(=O)on1C(=O)N1CCC[C@@H](C)C1` gave a pIC50 of 7.70. Against the preceding molecule, the pIC50 is 0.82 log units lower. Then `Cc1c(C(C)C)c(=O)on1C(=O)N1CCOCC1`, with 7.28; and `Cc1c(C(C)C)c(=O)on1C(=O)N1CCN(c2ncccn2)CC1`, with 7.17. The same measure for `Cc1c(C(C)(C)C)c(=O)on1C(=O)N1CCCCC1`: 7.85.

In turn, `Cc1c(C(C)C)c(=O)on1C(=O)N1CCC[C@H](C)C1` had a pIC50 of 8.52. This pIC50 lies 0.67 log units higher than the previous one. In the case of `CCCSc1nc(-c2ccc(Cl)cc2)nn1C(=O)N(C)C`, the pIC50 was 8.97. Then `Cc1c(CC(C)C)c(=O)on1C(=O)N1CCC(c2ccccc2)CC1`, with 8.00. For the molecule `Cc1c(C(C)C)c(=O)on1C(=O)N1CCCCC1`, the pIC50 was 8.70. `CCCCCCSc1nc(-c2ccc(C)cc2)nn1C(=O)N(C)c1ccccc1`: the negative-log IC50 (pIC50) was 7.91. Then `Cc1c(C(C)C)c(=O)on1C(=O)N1CCCCCC1`, with 7.21; and `Cc1c(C(C)C)c(=O)on1C(=O)N1CCN(C)CC1`, with 6.50; and `Cc1c(C(C)C)c(=O)on1C(=O)N(C)Cc1ccco1`, with 8.40. Then `Cc1c(C(C)C)c(=O)on1C(=O)N1CC(C)CCC1C` (stereo not given), with 6.34; and `CSc1nc(-c2ccc(-c3ccccc3)cc2)nn1C(=O)N(C)C`, with 7.58; and `CCN(CC)C(=O)n1oc(=O)c(C(C)C)c1C`, with 5.85. The same measure for `CCCCc1c(C)n(C(=O)N2CCCCC2)oc1=O`: 8.15. The molecule `CCCCCCSc1nc(-c2ccc(Cl)cc2)nn1C(=O)N1CCOCC1` showed a pIC50 of 6.05. Then `Cc1c(C(C)C)c(=O)on1C(=O)N1CCC(c2ccc(C(F)(F)F)cc2)CC1`, with 6.80.

Regarding `Cc1c(C(C)C)c(=O)on1C(=O)N1CCC(c2ccc(C(C)(C)C)cc2)CC1`, the pIC50 is 6.32. Then `CCN(CC)C(=O)C1CCCN(C(=O)n2oc(=O)c(C(C)C)c2C)C1` (stereo not given), with less than 6.00. Turning to `Cc1c(C2CCSCC2)c(=O)on1C(=O)N1CCCCC1`, the pIC50 is 7.96.

For `Cc1c(C(C)C)c(=O)on1C(=O)N(C)CCc1ccccc1`, the pIC50 was 6.74. Against the preceding molecule, the pIC50 is 1.22 log units lower. The same measure for `Cc1c(-c2ccccc2)c(=O)on1C(=O)N1CCCCC1`: 7.85. `Cc1c(CCOc2ccccc2)c(=O)on1C(=O)N1CCCCC1` showed a pIC50 of 8.40. The same measure for `CSc1nc(-c2ccc(Cl)cc2)nn1C(=O)N1CCCCC1`: 8.75; for `Cc1c(C2CCCCC2)c(=O)on1C(=O)N1CCCCC1`: 7.96; for `Cc1c(Cc2ccccc2)c(=O)on1C(=O)N1CCCCC1`: 8.30. Then `CCOCCc1c(C)n(C(=O)N2CCC(C)CC2)oc1=O`, with 8.52; and `Cc1c(C(C)C)c(=O)on1C(=O)Nc1ccccc1`, with less than 6.00; and `Cc1c(C(C)C)c(=O)on1C(=O)N1CCC(c2ccccc2)CC1`, with 7.92. The same measure for `Cc1ccc(C2CCN(C(=O)n3oc(=O)c(C(C)C)c3C)CC2)cc1`: 7.43; for `Cc1c(C(C)C)c(=O)on1C(=O)N1CCN(c2ccccc2Cl)CC1`: 7.52. Molecule `Cc1c(C(C)C)c(=O)on1C(=O)N1CCC(C(=O)N(C)C)CC1` had a pIC50 of less than 6.00. As to `Cc1c(S(=O)(=O)c2ccc(Cl)cc2)c(=O)on1C(=O)N1CCCCC1`, the pIC50 is 7.46. The same measure for `COc1nn(-c2ccc(NC(=O)c3ccc(C(C)(C)C)cc3)cc2)c(=O)o1`: 9.39; for `O=C(N1CCCCC1)n1nc(-c2ccc(Cl)cc2)nc1SCC(F)(F)F`: 8.15. For `Cc1c(C(C)C)c(=O)on1C(=O)N1CCSCC1`, the pIC50 was 8.10. Then `Cc1ccc(-c2nc(SCc3ccccc3)[nH]c(=O)c2CCO)cc1`, with 5.53; and `COCCc1c(C)n(C(=O)N2CCC(c3ccccc3)CC2)oc1=O`, with 7.96; and `Cc1c(Sc2ccccc2)c(=O)on1C(=O)N1CCCCC1`, with 8.22. In turn, `Cc1c(C(C)C)c(=O)on1C(=O)N(C)c1ccccn1` showed a pIC50 of 6.62. Against the preceding molecule, the pIC50 is 1.60 log units lower. The same measure for `Cc1c(C2CCCC2)c(=O)on1C(=O)N1CCC(c2ccccc2)CC1`: 7.62; for `CCOc1nn(-c2cccc(OCc3ccccc3)c2)c(=O)o1`: 7.71. The same measure for `CSc1nc(-c2ccc(C(F)(F)F)cc2)nn1C(=O)N(C)C`: 8.75; for `CCCCCCSc1nc(-c2ccc(C)cc2)nn1C(=O)N(C)C`: 6.05; for `CN(C(=O)n1nc(-c2ccc(Cl)cc2)nc1SCC(F)(F)F)c1ccccc1`: 8.52. Then `Cc1c(C(C)C)c(=O)on1C(=O)N(C)Cc1cccs1`, with 8.70. `Cc1c(C(C)C)c(=O)on1C(=O)N(C)c1ccc(Cl)cc1` gave a pIC50 of 7.77. Compared with the last molecule, the pIC50 is 0.93 log units lower.

Regarding `Cc1c(C(C)C)c(=O)on1C(=O)N1CCC(O)CC1`, the pIC50 was 6.78. Compared with the last molecule, the pIC50 is 0.99 log units lower. Molecule `Cc1c(C(C)C)c(=O)on1C(=O)N1CCN(Cc2ccccc2)CC1` had a pIC50 of 7.19. As to `CCc1c(C)n(C(=O)N2CCCCC2)oc1=O`, the pIC50 is 7.74. Then `Cc1c(C(C)C)c(=O)on1C(=O)N1CCc2ccccc21`, with less than 6.00. Then `Cc1c(CC(C)C)c(=O)on1C(=O)N1CCCCC1`, with 8.30; and `CCOC(=O)C1CCCN(C(=O)n2oc(=O)c(C(C)C)c2C)C1` (stereo not given), with 7.55. The same measure for `Cc1c(C(C)C)c(=O)on1C(=O)N1CC(C)CC(C)C1` (stereo not given): 6.49. `CCCCCCSc1nc(-c2ccc(Cl)cc2)nn1C(=O)N(C)c1ccccc1` gave a pIC50 of 8.15. `O=C(N1CCCCC1)n1nc(-c2ccc(Cl)cc2)nc1SCC1CC1`: the pIC50 was 8.45. Then `Cc1c(C(C)C)c(=O)on1C(=O)N1CCCC(C)(C)C1`, with 8.15. The same measure for `Cc1c(C(C)C)c(=O)on1C(=O)NC(C)(C)C`: less than 6.00; for `CCSc1nc(-c2ccc(OC)cc2)nn1C(=O)N(C)c1ccccc1`: 8.28. `Cc1c(C2CCOCC2)c(=O)on1C(=O)N1CCCCC1` showed a pIC50 of 7.15. As to `CCOC(=O)C1CCN(C(=O)n2oc(=O)c(C(C)C)c2C)CC1`, the pIC50 was 8.22. Against the preceding molecule, the pIC50 is 1.07 log units higher. On to `Cc1c(C(C)C)c(=O)on1C(=O)NCC1CCCCC1`, for which the pIC50 was 7.14. The same measure for `Cc1c(C(C)C)c(=O)on1C(=O)N1CCCC1`: 7.82; for `CSc1nc(-c2cccc3ccccc23)nn1C(=O)N(C)C`: 7.45.

For `Cc1c(Sc2ccc(Cl)cc2)c(=O)on1C(=O)N1CCCCC1`, the pIC50 was 8.22. This pIC50 is 0.77 log units higher than that of the molecule before.

A word on the pIC50: it is −log10 of the IC50, conventionally taken in molar units. Read a low pIC50 as a high IC50.
